Results: patent US10183952B2, “Thienopyrroles as histone demethylase inhibitors” (ISTITUTO EUROPEO DI ONCOLOGIA S.R.L., priority 2014, dated 2019)
Structures can show the parent of a compound that is named as a salt.

Each compound was assayed against human recombinant KDM1A/CoREST protein (Homo sapiens, UniProt O60341) (assay: Assay of enzyme inhibition of KDM1A (LSD1), TR-FRET).
Description: The intensity of the light emission is proportional to the level of biotinylated reaction product. The complex of human recombinant KDM1A/CoREST protein was produced in E. coli as separate proteins and co-purified as previously described.
Demethylase reaction was started by the addition of 50 nM histone H3K4 monomethylated.
The resulting mixture was incubated in the dark for 1 h at RT.
The IC50 was calculated using GraphPad Software.
An IC50 of under 10 µM was found for `Cn1c(C(=O)Nc2ccccc2COc2ccc(NC3CCNCC3)cc2)cc2sccc21` [Example 39, 4-methyl-N-[2-[[4-(4-piperidylamino)phenoxy]methyl]phenyl]thieno[3,2-b]pyrrole-5-carboxamide; 2,2,2-trifluoroacetic acid] in this work.
An IC50 of under 10 µM was found for `CN1CCC(Oc2ccc(OCc3ccc(NC(=O)c4cc5sccc5n4C)cc3)cc2)CC1` [Example 23, 4-methyl-N-[4-[[4-[(1-methyl-4-piperidyl)oxy]phenoxy]methyl]phenyl]thieno[3,2-b]pyrrole-5-carboxamide] in this work.
An IC50 of under 10 µM was found for `Cn1c(C(=O)Nc2ccccc2COc2ccc(CNC(=N)N)cc2)cc2sccc21` [Example 60, N-[2-[[4-(Guanidinomethyl)phenoxy]methyl]phenyl]-4-methyl-thieno[3,2-b]pyrrole-5-carboxamide; trifluoroacetic acid] in this work.
An IC50 of under 10 µM was found for `Cn1c(C(=O)Nc2ccccc2COc2ccc(N3CCNCC3)cc2)cc2sccc21` [Example 37, 4-methyl-N-[2-[(4-piperazin-1-ylphenoxy)methyl]phenyl]thieno[3,2-b]pyrrole-5-carboxamide] in this work.
An IC50 of under 50 µM was found for `Cn1c(C(=O)Nc2ccccc2OCC2CCNCC2)cc2sccc21` [Example 57, 4-Methyl-N-[2-(4-piperidylmethoxy)phenyl]thieno[3,2-b]pyrrole-5-carboxamide hydrochloride] in this work.
An IC50 of under 10 µM was found for `Cn1c(C(=O)Nc2cccc(COc3ccc(OC4CCNC4)cc3)c2)cc2sccc21` (stereo not drawn) [Example 32, 4-methyl-N-[3-[(4-pyrrolidin-3-yloxyphenoxy)methyl]phenyl]thieno[3,2-b]pyrrole-5-carboxamide hydrochloride] in this work.
An IC50 of under 10 µM was found for `CCn1c(C(=O)Nc2ccccc2COc2cccc(OC3CCNCC3)c2)cc2ccsc21` [Example 65, 6-Ethyl-N-[2-[[3-(4-piperidyloxy)phenoxy]methyl]phenyl]thieno[2,3-b]pyrrole-5-carboxamide] in this work.
An IC50 of under 10 µM was found for `CCn1c(C(=O)Nc2ccccc2COc2ccc(OC3CCNCC3)cc2)cc2ccsc21` [Example 66, 6-Ethyl-N-[2-[[4-(4-piperidyloxy)phenoxy]methyl]phenyl]thieno[2,3-b]pyrrole-5-carboxamide hydrochloride] in this work.
An IC50 of under 25 µM was found for `COCc1cccc(NC(=O)c2cc3ccsc3n2C)c1` [Example 48, N-[3-(methoxymethyl)phenyl]-6-methyl-thieno[2,3-b]pyrrole-5-carboxamide] in this work.
An IC50 of under 10 µM was found for `Cn1c(C(=O)Nc2ccccc2COc2ccc(OC3CCCNC3)cc2)cc2sccc21` (stereo not drawn) [Example 27, 4-methyl-N-[2-[[4-(3-piperidyloxy)phenoxy]methyl]phenyl]thieno[3,2-b]pyrrole-5-carboxamide] in this work.
An IC50 of under 10 µM was found for `Cn1c(C(=O)Nc2ccccc2COc2ccc(OCC3CCNC3)cc2)cc2ccsc21` (stereo not drawn) [Example 68, 6-Methyl-N-[2-[[4-(pyrrolidin-3-ylmethoxy)phenoxy]methyl]phenyl]thieno[2,3-b]pyrrole-5-carboxamide hydrochloride] in this work.
An IC50 of under 25 µM was found for `Cn1c(C(=O)Nc2ccccc2COc2ccc(OC3CCNCC3)cn2)cc2sccc21` [Example 56, 4-Methyl-N-[2-[[5-(4-piperidyloxy)-2-pyridyl]oxymethyl]phenyl]thieno[3,2-b]pyrrole-5-carboxamide hydrochloride] in this work.
An IC50 of under 10 µM was found for `CCn1c(C(=O)Nc2cccc(COC)c2)cc2sccc21` [Example 45, 4-ethyl-N-[3-(methoxymethyl)phenyl]thieno[3,2-b]pyrrole-5-carboxamide] in this work.
An IC50 of under 10 µM was found for `COCc1cccc(NC(=O)c2cc3sccc3n2C)c1COc1ccc(OC[C@@H]2CCNC2)cc1` [Example 42, N-[3-(methoxymethyl)-2-[[4-[[(3R)-pyrrolidin-3-yl]methoxy]phenoxy]methyl]phenyl]-4-methyl-thieno[3,2-b]pyrrole-5-carboxamide hydrochloride] in this work.
An IC50 of under 10 µM was found for `Cn1c(C(=O)Nc2cccc(COc3ccncc3)c2)cc2sccc21` [Example 22, 4-methyl-N-[3-(4-pyridyloxymethyl)phenyl]thieno[3,2-b]pyrrole-5-carboxamide] in this work.
An IC50 of under 10 µM was found for `Cn1c(C(=O)Nc2cccc(COc3ccc(OCC4CNC4)cc3)c2)cc2sccc21` [Example 30, N-[3-[[4-(azetidin-3-ylmethoxy)phenoxy]methyl]phenyl]-4-methyl-thieno[3,2-b]pyrrole-5-carboxamide] in this work.
An IC50 of under 10 µM was found for `COCc1cccc(NC(=O)c2cc3sccc3n2C)c1COc1ccc(OC2CCNCC2)cc1` [Example 43, N-[3-(methoxymethyl)-2-[[4-(4-piperidyloxy)phenoxy]methyl]phenyl]-4-methyl-thieno[3,2-b]pyrrole-5-carboxamide hydrochloride] in this work.
An IC50 of under 10 µM was found for `Cn1c(C(=O)Nc2ccccc2COc2ccc(CN3CCC4(CCNCC4)C3)cc2)cc2sccc21` [Example 41, N-[2-[[4-(2,8-diazaspiro[4.5]decan-2-ylmethyl)phenoxy]methyl]phenyl]-4-methyl-thieno[3,2-b]pyrrole-5-carboxamide] in this work.
An IC50 of under 10 µM was found for `Cn1c(C(=O)Nc2cccc(COc3cccc(OC4CCNCC4)c3)c2)cc2sccc21` [Example 58, 4-Methyl-N-[3-[[3-(4-piperidyloxy)phenoxy]methyl]phenyl]thieno[3,2-b]pyrrole-5-carboxamide hydrochloride] in this work.
An IC50 of under 10 µM was found for `CSCc1cccc(NC(=O)c2cc3sccc3n2C)c1` [Example 46, 4-methyl-N-[3-(methylsulfanylmethyl)phenyl]thieno[3,2-b]pyrrole-5-carboxamide] in this work.
An IC50 of under 10 µM was found for `Cn1c(C(=O)Nc2cccc(COc3ccc(CNC(=N)N)cc3)c2)cc2sccc21` [Example 59, N-[3-[[4-(Guanidinomethyl)phenoxy]methyl]phenyl]-4-methyl-thieno[3,2-b]pyrrole-5-carboxamide; trifluoroacetic acid] in this work.
An IC50 of under 10 µM was found for `Cn1c(C(=O)Nc2ccccc2COc2ccc(OCC3CNC3)cc2)cc2sccc21` [Example 40, N-[2-[[4-(azetidin-3-ylmethoxy)phenoxy]methyl]phenyl]-4-methyl-thieno[3,2-b]pyrrole-5-carboxamide; 2,2,2-trifluoroacetic acid] in this work.
An IC50 of under 10 µM was found for `Cn1c(C(=O)Nc2ccccc2C(=O)Nc2ccc(OC3CCNCC3)cc2)cc2sccc21` [Example 36, 4-methyl-N-[2-[[4-(4-piperidyloxy)phenyl]carbamoyl]phenyl]thieno[3,2-b]pyrrole-5-carboxamide] in this work.
An IC50 of under 10 µM was found for `Cn1c(C(=O)Nc2cccc(COc3ccc(O[C@H]4CC[C@@H](N)CC4)cc3)c2)cc2sccc21` [Example 34, N-[3-[[4-(cis-4-aminocyclohexoxy)phenoxy]methyl]phenyl]-4-methyl-thieno[3,2-b]pyrrole-5-carboxamide] in this work.
An IC50 of under 10 µM was found for `Cn1c(C(=O)Nc2cccc(COc3ccc(OC4CCCNC4)cc3)c2)cc2sccc21` (stereo not drawn) [Example 28, 4-methyl-N-[3-[[4-(3-piperidyloxy)phenoxy]methyl]phenyl]thieno[3,2-b]pyrrole-5-carboxamide] in this work.
An IC50 of under 10 µM was found for `Cn1c(C(=O)Nc2cccc(COc3ccc(O[C@H]4CC[C@H](N)CC4)cc3)c2)cc2sccc21` [Example 29, N-[3-[[4-(trans-4-aminocyclohexoxy)phenoxy]methyl]phenyl]-4-methyl-thieno[3,2-b]pyrrole-5-carboxamide] in this work.
An IC50 of under 10 µM was found for `COCc1cccc(NC(=O)c2cc3sccc3n2C)c1COc1ccc(OC2CCCNCC2)cc1` (stereo not drawn) [Example 44, N-[2-[[4-(azepan-4-yloxy)phenoxy]methyl]-3-(methoxymethyl)phenyl]-4-methyl-thieno[3,2-b]pyrrole-5-carboxamide hydrochloride] in this work.
